In US20200000772A1, “CENICRIVIROC COMBINATION THERAPY FOR THE TREATMENT OF FIBROSIS” (Tobira Therapeutics, Inc., priority 2014, published 2020) one finds tissue distribution data, which are given here for one compound.

Structures are written as SMILES.

The nature of the data set: Tissue distribution in rodents. In kind it is in vivo. An excerpt:
Infiltration of various immune cell populations, resulting in inflammation, is a central pathogenic feature following acute- and chronic liver injury. Chronic liver inflammation leads to continuous hepatocyte injury which can lead to fibrosis, cirrhosis, ESLD, and HCC. Interactions between intra-hepatic immune cells lead to increased activation and migration of Kupffer cells and HSCs and are critical events for developing liver fibrosis. Additionally, there is increasing evidence of the role of CCR2 and CCR5 in the pathogenesis of liver fibrosis. These members of the C-C chemokine family are expressed by pro-fibrogenic cells including pro-inflammatory monocytes and macrophages, Kupffer cells, and HSCs. CCR2 signaling plays an important role in the pathogenesis of renal fibrosis through regulation of bone marrow-derived fibroblasts. CCR2- and CCR5-positive monocytes as well as CCR5-positive T lymphocytes are attracted by locally released MCP-1 and RANTES, and can contribute to chronic interstitial inflammation in the kidney. […] Disruption of the intestinal microbiota and its downstream effects on the gut-liver axis both play an important role in metabolic disorders such as obesity, non-alcoholic fatty liver disease (NAFLD) and non-alcoholic steatohepatitis (NASH).

Regarding `CCCCOCCOc1ccc(-c2ccc3c(c2)/C=C(/C(=O)Nc2ccc([S@@+]([O-])Cc4cncn4CCC)cc2)CCCN3CC(C)C)cc1` [CVC, (S)-8-[4-(2-Butoxyethoxy)phenyl]-1-isobutyl-N-(4-{[(1-propyl-1H-imidazol-5-yl)methyl]sulfinyl}phenyl)-1,2,3,4-tetrahydro-1-benzazocine-5-carboxamide], the tissue distribution result is “high distribution in the liver, mesenteric lymph node, and intestine”.
